The source of these data is ChEMBL document CHEMBL4229535, “Design, synthesis and evaluation of oxime-functionalized nitrofuranylamides as novel antitubercular agents” (2018).

Structures are written as SMILES. Values after ≈ are worked out from the molar mass of the structure shown. A value given as a limit tells only on which side of the number the result lay.

Holding throughout (assay type): functional
A short description of assay [1]: Resistance index, ratio of MIC>90 for multidrug-resistant Mycobacterium tuberculosis clinical isolate 16995 to MIC>90 for Mycobacterium tuberculosis H37Rv ATCC 27294.
The test system of assay [2] is Mycobacterium tuberculosis. Put plainly: Antimycobacterial activity against multidrug-resistant Mycobacterium tuberculosis isolate 16833 after 7 days by microplate alamar blue assay. The note with it: isolate 16833, 168 h. (Alamar Blue is a resazurin reagent that responds to reducing activity.)
Assay [3] in a line: Resistance index, ratio of MIC>90 for multidrug-resistant Mycobacterium tuberculosis clinical isolate 16833 to MIC>90 for Mycobacterium tuberculosis H37Rv ATCC 27294.
For assay [4], the system named is Mycobacterium tuberculosis. The experiment in a line: Antimycobacterial activity against multidrug-resistant Mycobacterium tuberculosis isolate 16995 after 7 days by microplate alamar blue assay. Conditions: isolate 16995, 168 h.

Usually MIC90 stands for an inhibitory concentration at the 90% level, which refers to growth in some studies and to a panel of isolates in others. High values mean lower susceptibility, low ones higher susceptibility. Regarding `CON=C1CCN(C(=O)c2ccc([N+](=O)[O-])o2)CC1`, the Ratio in assay [1] and in assay [3] was 1 throughout. Moreover, the results for the MIC90 in assay [2] and in assay [4] were 1.91 µg/mL (≈ 7.16 µM) and 1.94 µg/mL (≈ 7.24 µM), respectively.
For `O=C(c1ccc([N+](=O)[O-])o1)N1CC/C(=N\OCc2ccccc2)C1`, the Ratio in assay [1] and in assay [3] was 1 in each case. Further, the figures for the MIC90 in assay [2] and in assay [4] were 0.207 µg/mL (≈ 0.629 µM) and 0.38 µg/mL (≈ 1.15 µM), respectively.
Regarding `NNC(=O)c1ccncc1` [ISONIAZID], the MIC90 in assay [2] and in assay [4] was more than 40 µg/mL each time.
As to `O=C(c1ccc([N+](=O)[O-])o1)N1CCc2ccccc21`, the MIC90 in assay [2] and in assay [4] was more than 4 µg/mL throughout.
Turning to `CO[C@H]1/C=C/O[C@@]2(C)Oc3c(C)c(O)c4c(O)c(c(/C=N/N5CCN(C)CC5)c(O)c4c3C2=O)NC(=O)/C(C)=C\C=C\[C@H](C)[C@H](O)[C@@H](C)[C@@H](O)[C@@H](C)[C@H](OC(C)=O)[C@@H]1C` [RIFAMPIN], the MIC90 in assay [2] and in assay [4] was more than 40 µg/mL each time.
`O=C(c1ccc([N+](=O)[O-])o1)N1CCC(=NOCc2ccccc2)CC1`: the Ratio in assay [1] and in assay [3] was 1 each time. Also, the MIC90 in assay [2] came to 0.482 µg/mL (≈ 1.4 µM); in assay [4], 0.426 µg/mL (≈ 1.24 µM).
Regarding `CO/N=C1\CCN(C(=O)c2ccc([N+](=O)[O-])o2)C1`, the Ratio in assay [1] and in assay [3] was 1 each time. Further, the MIC90 in assay [2] came out at 1.93 µg/mL (≈ 7.61 µM); in assay [4], 1.91 µg/mL (≈ 7.54 µM).
